In the supplement of paper PMC4862054:

Key:
Conditions in all cases: incubation time: 72 h
CAL-120 [1] = experiment: drug sensitivity score (DSS), CellTiter-Glo (DSS (AUC-based score)); higher = stronger drug effect (viability inhibition or cytotoxicity); extreme values may be limits of the assay
How it was run: (§1)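 Breast cancer cell lines were seeded in 20 µl suspension into 384-well plates already holding compound and incubated for 72 h. Each compound was tested at 5 concentrations in 10-fold steps across its own 10,000-fold range. Plates were normalised to 0.1 % DMSO and a positive kill control after CellTox Green and then CellTiter-Glo readings. The area under the fitted dose-response curve served as the basis for the drug sensitivity score.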

MFM-223 [2] = experiment: as above
How it was run: as §1

HDQ-P1 [3] = experiment: as above
How it was run: as §1

MDA-MB-468 [4] = experiment: as above
How it was run: as §1

MDA-MB-436 [5] = experiment: as above
How it was run: as §1

MDA-MB-453 [6] = experiment: as above
How it was run: as §1

CAL-51 [7] = experiment: as above
How it was run: as §1

HCC1599 = experiment: as above
How it was run: as §1

CAL-85-1 = experiment: normalised response (% of control), CellTox Green; higher = less cell death (100 = DMSO, 0 = benzethonium chloride kill control)
How it was run: (§2)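 The table gives the normalised signal for a single concentration in each entry. Breast cancer cell lines were seeded (20 µl suspension) into 384-well plates holding compound at 5 concentrations in 10-fold steps over a compound-specific 10,000-fold range and incubated 72 h, then read for CellTox Green fluorescence (485/520 nm) and CellTiter-Glo luminescence. Normalisation on each plate used 0.1 % DMSO (100) and a positive kill control (0).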

DU-4475 = experiment: as above
How it was run: as §2

CAL-120 [8] = experiment: as above
How it was run: as §2

MFM-223 [9] = experiment: as above
How it was run: as §2

HDQ-P1 [10] = experiment: as above
How it was run: as §2

MDA-MB-468 [11] = experiment: as above
How it was run: as §2

HCC1937 = experiment: as above
How it was run: as §2

MDA-MB-436 [12] = experiment: as above
How it was run: as §2

Hs578T = experiment: as above
How it was run: as §2

HCC1143 = experiment: as above
How it was run: as §2

MDA-MB-453 [13] = experiment: as above
How it was run: as §2

CAL-51 [14] = experiment: as above
How it was run: as §2

CAL-148 = experiment: as above
How it was run: as §2

Nc1nc(Cl)nc2c1ncn2[C@@H]1O[C@H](CO)[C@@H](O)[C@@H]1F [Clofarabine]
drug sensitivity score (CAL-120 [1]): 4.58
drug sensitivity score (MFM-223 [2]): 0
drug sensitivity score (HDQ-P1 [3]): 3.38
drug sensitivity score (MDA-MB-468 [4]): 11.7
drug sensitivity score (MDA-MB-436 [5]): 16
drug sensitivity score (MDA-MB-453 [6]): 0
drug sensitivity score (CAL-51 [7]): 17.6
drug sensitivity score (HCC1599): 9.47

CN1CCN(c2nc(C3=C(c4c[nH]c5ccccc45)C(=O)NC3=O)c3ccccc3n2)CC1 [Sotrastaurin] (10000 nM)
normalised response (CAL-85-1): 128%
normalised response (DU-4475): 100%
normalised response (CAL-120 [8]): 94.2%
normalised response (MFM-223 [9]): 101%
normalised response (HDQ-P1 [10]): 102%
normalised response (MDA-MB-468 [11]): 194%
normalised response (HCC1937): 68.4%
normalised response (MDA-MB-436 [12]): 68.3%
normalised response (Hs578T): 118%
normalised response (HCC1143): 93.5%
normalised response (MDA-MB-453 [13]): 107%
normalised response (CAL-51 [14]): 94.2%

COc1cc(Nc2ncc(F)c(Nc3ccc4c(n3)N(COP(=O)(O)O)C(=O)C(C)(C)O4)n2)cc(OC)c1OC [Fostamatinib]
drug sensitivity score (CAL-120 [1]): 5.15
drug sensitivity score (MFM-223 [2]): 7.93
drug sensitivity score (HDQ-P1 [3]): 2.19
drug sensitivity score (MDA-MB-468 [4]): 0
drug sensitivity score (MDA-MB-436 [5]): 0
drug sensitivity score (MDA-MB-453 [6]): 0
drug sensitivity score (CAL-51 [7]): 0
drug sensitivity score (HCC1599): 0

COc1cc2c(Oc3ccc(NC(=O)C4(C(=O)Nc5ccc(F)cc5)CC4)cc3F)ccnc2cc1OCCCN1CCOCC1 [Foretinib] (1000 nM)
normalised response (CAL-85-1): 76.8%
normalised response (DU-4475): 95.2%
normalised response (CAL-120 [8]): 99.9%
normalised response (MFM-223 [9]): 84.4%
normalised response (CAL-148): 33.1%
normalised response (HDQ-P1 [10]): 58.9%
normalised response (MDA-MB-468 [11]): 37.6%
normalised response (HCC1937): 99.8%
normalised response (MDA-MB-436 [12]): 81.9%
normalised response (Hs578T): 75.7%
normalised response (HCC1143): 46%
normalised response (MDA-MB-453 [13]): 93.5%
normalised response (CAL-51 [14]): 37.9%

CO[C@H](C(=O)[C@@H](O)[C@@H](C)O)[C@@H]1Cc2cc3cc(O[C@H]4C[C@@H](O[C@@H]5C[C@@H](O)[C@H](O)[C@@H](C)O5)[C@H](O)[C@@H](C)O4)c(C)c(O)c3c(O)c2C(=O)[C@H]1O[C@H]1C[C@@H](O[C@@H]2C[C@@H](O)[C@@H](O[C@@H]3C[C@](C)(O)[C@H](O)[C@@H](C)O3)[C@@H](C)O2)[C@H](O)[C@@H](C)O1 [Plicamycin] (10000 nM)
normalised response (CAL-85-1): 39.3%
normalised response (DU-4475): 87.9%
normalised response (CAL-120 [8]): 71.9%
normalised response (MFM-223 [9]): 88.4%
normalised response (CAL-148): 68.9%
normalised response (HDQ-P1 [10]): 82.1%
normalised response (MDA-MB-468 [11]): 54%
normalised response (HCC1937): 114%
normalised response (MDA-MB-436 [12]): 109%
normalised response (Hs578T): 40.9%
normalised response (HCC1143): 82.2%
normalised response (MDA-MB-453 [13]): 45.7%
normalised response (CAL-51 [14]): -45.3%

CC(C)n1nc(-c2ccc3oc(N)nc3c2)c2c(N)ncnc21 [INK128]
drug sensitivity score (CAL-120 [1]): 14.9
drug sensitivity score (MFM-223 [2]): 15.5
drug sensitivity score (HDQ-P1 [3]): 13.5
drug sensitivity score (MDA-MB-468 [4]): 13.5
drug sensitivity score (MDA-MB-436 [5]): 11.3
drug sensitivity score (MDA-MB-453 [6]): 14.8
drug sensitivity score (CAL-51 [7]): 16.5
drug sensitivity score (HCC1599): 4.56

CC(C)C(=O)Nc1ccc([N+](=O)[O-])c(C(F)(F)F)c1 [Flutamide]
drug sensitivity score (CAL-120 [1]): 0
drug sensitivity score (MFM-223 [2]): 0
drug sensitivity score (HDQ-P1 [3]): 0
drug sensitivity score (MDA-MB-468 [4]): 0
drug sensitivity score (MDA-MB-436 [5]): 0
drug sensitivity score (MDA-MB-453 [6]): 0
drug sensitivity score (CAL-51 [7]): 0.0535
drug sensitivity score (HCC1599): 0

NC(=O)c1cccc2cn(-c3ccc([C@@H]4CCCNC4)cc3)nc12 [MK-4827]
drug sensitivity score (CAL-120 [1]): 0
drug sensitivity score (MFM-223 [2]): 0
drug sensitivity score (HDQ-P1 [3]): 0
drug sensitivity score (MDA-MB-468 [4]): 1.06
drug sensitivity score (MDA-MB-436 [5]): 3.73
drug sensitivity score (MDA-MB-453 [6]): 0
drug sensitivity score (CAL-51 [7]): 0
drug sensitivity score (HCC1599): 0

C[C@@H]1C[C@H]2[C@@H]3CCC4=CC(=O)C=C[C@]4(C)[C@@]3(F)[C@@H](O)C[C@]2(C)[C@@]1(O)C(=O)CO [Dexamethasone] (10000 nM)
normalised response (CAL-85-1): 130%
normalised response (DU-4475): 97.4%
normalised response (CAL-120 [8]): 102%
normalised response (MFM-223 [9]): 101%
normalised response (CAL-148): 100%
normalised response (HDQ-P1 [10]): 99.2%
normalised response (MDA-MB-468 [11]): 135%
normalised response (HCC1937): 61.1%
normalised response (MDA-MB-436 [12]): 97.4%
normalised response (Hs578T): 87.4%
normalised response (HCC1143): 51.4%
normalised response (MDA-MB-453 [13]): 100%
normalised response (CAL-51 [14]): 103%

Cn1nnc2c(C(N)=O)ncn2c1=O [Temozolomide] (10000 nM)
normalised response (CAL-85-1): 105%
normalised response (DU-4475): 98.2%
normalised response (CAL-120 [8]): 98.5%
normalised response (MFM-223 [9]): 97.3%
normalised response (CAL-148): 102%
normalised response (HDQ-P1 [10]): 109%
normalised response (MDA-MB-468 [11]): 103%
normalised response (HCC1937): 105%
normalised response (MDA-MB-436 [12]): 94.4%
normalised response (Hs578T): 111%
normalised response (HCC1143): 93.6%
normalised response (MDA-MB-453 [13]): 101%
normalised response (CAL-51 [14]): 104%

CCCCCOC(=O)Nc1nc(=O)n([C@@H]2O[C@H](C)[C@@H](O)[C@H]2O)cc1F [Capecitabine] (10000 nM)
normalised response (CAL-85-1): 87.2%
normalised response (DU-4475): 97.5%
normalised response (CAL-120 [8]): 90.2%
normalised response (CAL-148): 99.5%
normalised response (HDQ-P1 [10]): 94.7%
normalised response (MDA-MB-468 [11]): 100%
normalised response (HCC1937): 87.1%
normalised response (MDA-MB-436 [12]): 103%
normalised response (Hs578T): 56.1%
normalised response (HCC1143): 122%
normalised response (MDA-MB-453 [13]): 104%
normalised response (CAL-51 [14]): 99.4%

NC(=O)c1cccc2cn(-c3ccc([C@@H]4CCCNC4)cc3)nc12 [MK-4827] (10000 nM)
normalised response (CAL-85-1): 70.3%
normalised response (DU-4475): 89.2%
normalised response (CAL-120 [8]): 97.3%
normalised response (MFM-223 [9]): 98.7%
normalised response (CAL-148): 79.6%
normalised response (HDQ-P1 [10]): 97.9%
normalised response (MDA-MB-468 [11]): 116%
normalised response (MDA-MB-436 [12]): 105%
normalised response (Hs578T): 118%
normalised response (HCC1143): 127%
normalised response (MDA-MB-453 [13]): 105%
normalised response (CAL-51 [14]): 63.6%

CC(C)C[C@H](NC(=O)[C@H](CCc1ccccc1)NC(=O)CN1CCOCC1)C(=O)N[C@@H](Cc1ccccc1)C(=O)N[C@@H](CC(C)C)C(=O)[C@@]1(C)CO1 [Carfilzomib] (1000 nM)
normalised response (CAL-85-1): -74.2%
normalised response (DU-4475): 87.3%
normalised response (CAL-120 [8]): -0.18%
normalised response (MFM-223 [9]): 55.2%
normalised response (CAL-148): 12.2%
normalised response (HDQ-P1 [10]): -14.6%
normalised response (MDA-MB-468 [11]): -84%
normalised response (HCC1937): 32.8%
normalised response (MDA-MB-436 [12]): 38.2%
normalised response (Hs578T): -63.5%
normalised response (HCC1143): 72.1%
normalised response (MDA-MB-453 [13]): 91.3%
normalised response (CAL-51 [14]): 15.1%
